Results published in ChEMBL document CHEMBL5518182, “Discovery and development of BI 1265162, an ENaC inhibitor for the treatment of cystic fibrosis” (Eur J Med Chem, 2024).
The source made the active and inactive calls. The rule behind the calls is not given here.

How the values were obtained:
[1] = Inhibition of ENaC in mouse M1 cells upto 10 uM by chamber assay; type: cell-based; conditions: m1 cell
[2] = Permeability across basal to apical side in human Calu-3 cells at 0.1 to 300 uM measured upto 2 hrs by HPLC-MS/MS analysis; type: ADME, cell-based; conditions: dose 0.1-300 µM, read-out: permeability
[3] = Solubility of compound at pH 5; type: physicochemical; conditions: buffer
[4] = system: Lung; test: Inhibition of lung water resorption in Wistar rat at 30 ug/kg, IT(Intratracheal) incubated for 3 hrs relative to control; type: functional
[5] = system: M1 cell; test: Inhibition of ENaC-mediated water resorption in mouse M1 cells at 3 uM by radiometric dilution assay relative to control; type: cell-based
[6] = system: Lung; test: Inhibition of lung water resorption in Wistar rat at 3 ug/kg, IT(Intratracheal) incubated for 3 hrs relative to control; type: functional
[7] = system: Lung; test: Inhibition of lung water resorption in Wistar rat at 0.3 ug/kg, IT(Intratracheal) incubated for 3 hrs relative to control; type: functional
[8] = target: Acetylcholinesterase (Homo sapiens) (UniProt P22303); test: Inhibition of AChE (unknown origin) at 10 uM relative to control
Acetylcholinesterase (Homo sapiens), sequence (P22303 whole entry): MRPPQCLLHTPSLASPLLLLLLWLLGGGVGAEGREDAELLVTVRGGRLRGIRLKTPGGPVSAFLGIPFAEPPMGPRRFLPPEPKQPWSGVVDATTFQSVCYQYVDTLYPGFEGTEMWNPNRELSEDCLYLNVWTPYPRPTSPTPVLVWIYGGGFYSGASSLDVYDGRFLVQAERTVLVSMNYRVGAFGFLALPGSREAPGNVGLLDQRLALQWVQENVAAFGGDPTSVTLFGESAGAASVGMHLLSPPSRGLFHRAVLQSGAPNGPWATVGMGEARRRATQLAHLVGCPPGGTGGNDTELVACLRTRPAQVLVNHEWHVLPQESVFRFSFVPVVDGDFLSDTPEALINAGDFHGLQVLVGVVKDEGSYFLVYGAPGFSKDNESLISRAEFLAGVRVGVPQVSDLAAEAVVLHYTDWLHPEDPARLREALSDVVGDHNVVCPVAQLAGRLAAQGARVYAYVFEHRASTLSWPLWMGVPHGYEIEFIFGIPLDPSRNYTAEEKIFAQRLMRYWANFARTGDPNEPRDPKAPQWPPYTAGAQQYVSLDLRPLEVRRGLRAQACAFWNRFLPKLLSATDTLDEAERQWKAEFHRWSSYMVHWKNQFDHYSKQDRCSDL

[9] = system: Rattus norvegicus; test: Acute effect on Han Wistar rat model of lung fluid absorption administered intratracheally measured after 3 hrs; type: functional; conditions: route it(Intratracheal)
[10] = system: Rattus norvegicus; test: Upregulation of serum aldosterone level in Han Wistar rat model of lung fluid absorption at 3 ug/kg, IT(Intratracheal) measured after 3 hrs relative to control; type: functional; conditions: dose 3 µg/kg
[11] = organism: Rattus norvegicus; test: Upregulation of serum potassium level in Han Wistar rat; type: functional, organism-based
[12] = system: Rattus norvegicus; test: Effect on Han Wistar rat model of lung fluid absorption at ED70 administered intratracheally measured after 20 hrs; type: functional; conditions: route it(Intratracheal)

Structure (SMILES)	IC50 [1]	Papp B→A at 2 h, up to 300 µM [2]	solubility [3]	inhibition [5]	further results
Cn1c(CNC(=O)c2nc(Cl)cnc2N)[n+](C)c2ccccc21	81 nM				
CCn1c(CNC(=O)c2nc(Cl)cnc2N)[n+](CC)c2cc(C(=O)N3CCC(N)CC3)ccc21	5 nM	0.18 ×10⁻⁶ cm/s	> 2%	84%	inhibition in vivo at 0.03 mg/kg [4]: 26%; inhibition in vivo at 0.003 mg/kg [6]: 13%
CC[n+]1c(CNC(=O)c2nc(Cl)cnc2N)n(CCOCCOCCO)c2ccc(OC)cc21	3 nM				
CCn1c(CNC(=O)c2nc(Cl)c(N)nc2N)[n+](CC)c2cc(OCCCP(=O)([O-])OCCOC)ccc21	4.2 nM	0.03 ×10⁻⁶ cm/s	> 5%	98%	inhibition in vivo at 0.03 mg/kg [4]: 22%; inhibition in vivo at 0.003 mg/kg [6]: 12%
CCn1c(CNC(=O)c2nc(Cl)c(N)nc2N)[n+](CC)c2cc(OC)ccc21	0.3 nM				
CC[n+]1c(CNC(=O)c2nc(Cl)c(N)nc2N)[nH]c2ccc(OC)cc21	26 nM				
CCn1c(CNC(=O)c2nc(Cl)cnc2N)[n+](CC)c2cc(OCC(=O)O)ccc21	16 nM	0.22 ×10⁻⁶ cm/s		70%	
CCn1c(CNC(=O)c2nc(Cl)cnc2N)[n+](CC)c2ccccc21	0.7 nM				
Cn1c(CNC(=O)c2nc(Cl)c(N)nc2N)[n+](C)c2ccccc21	19 nM				
CCn1c(CNC(=O)c2nc(Cl)c(N)nc2N)[n+](CCCO)c2cc(OC)ccc21	0.3 nM				
CCn1c(CNC(=O)c2nc(Cl)cnc2N)[n+](CC)c2ccc(C(=O)NCCCN)cc21		0.22 ×10⁻⁶ cm/s	> 2%		
CCn1c(CNC(=O)c2nc(Cl)c(N)nc2N)[n+](CCO)c2cc(OC)ccc21	0.5 nM				
CCn1c(CNC(=O)c2nc(Cl)cnc2N)[n+](CC)c2cc(C(=O)NCCCN)ccc21	3.6 nM			83%	inhibition in vivo at 0.03 mg/kg [4]: 24%; inhibition in vivo at 0.003 mg/kg [6]: 25%
CC[n+]1c(CNC(=O)c2nc(Cl)c(N)nc2N)n(CC(=O)OC)c2ccc(OC)cc21	0.5 nM				
CCn1c(CNC(=O)c2cc(Cl)cnc2N)[n+](CC)c2ccccc21	50 nM				
CC[n+]1c(CNC(=O)c2nc(Cl)c(N)nc2N)n(CC2CCOCC2)c2ccc(OCC(=O)N(Cc3nc(C)ccc3O)C[C@H](C)O)cc21	2.5 nM	0.2 ×10⁻⁶ cm/s	< 2%	63%	
CCn1c(CNC(=O)c2nc(Cl)c(NC)nc2N)[n+](CC)c2ccccc21	305 nM				
CCn1c(CNC(=O)c2nc(Cl)cnc2N)[n+](CC)c2cc(C(=O)N3CCC(N(C)C)CC3)ccc21	4.2 nM	< 0.13 ×10⁻⁶ cm/s	> 2%	79%	inhibition in vivo at 0.0003 mg/kg [7]: 19%; inhibition in vivo at 0.03 mg/kg [4]: 26%; inhibition [8]: 11%; inhibition in vivo at 0.003 mg/kg [6]: 25%

Structure (SMILES)	IC50 [1]	Papp B→A at 2 h, up to 300 µM [2]	solubility [3]	inhibition [5]	further results
CCn1c(CNC(=O)c2nc(Cl)c(N)nc2N)nc2cc(OC)ccc21	168 nM				
CC[n+]1c(CNC(=O)c2nc(Cl)c(N)nc2N)n(CC(=O)O)c2ccc(OC)cc21	6.5 nM				
CC[n+]1c(CNC(=O)c2nc(Cl)cnc2N)n(CC2CCOCC2)c2ccc(OCC(=O)N(Cc3nc(C)ccc3O)C[C@H](C)O)cc21	8.6 nM	0.12 ×10⁻⁶ cm/s	> 5%	72%	inhibition in vivo at 0.0003 mg/kg [7]: 8%; inhibition in vivo at 0.03 mg/kg [4]: 33%; inhibition [8]: 18%; inhibition in vivo at 0.003 mg/kg [6]: 17%
CC[n+]1c(CNC(=O)c2nc(Cl)c(N)nc2N)n(CCOCCOCCO)c2ccc(OC)cc21	0.5 nM				
CCn1c(CNC(=O)c2cc(Cl)ccc2N)[n+](CC)c2ccccc21	19 nM				
CCOP(=O)([O-])CCCOc1ccc2c(c1)[n+](CC)c(CNC(=O)c1nc(Cl)c(N)nc1N)n2CCCC#N	19 nM	0.22 ×10⁻⁶ cm/s	> 5%	83%	inhibition in vivo at 0.03 mg/kg [4]: 16%; inhibition in vivo at 0.003 mg/kg [6]: 6%
CCn1c(CNC(=O)c2nc(Cl)cnc2N)[n+](CC)c2cc(C(=O)O)ccc21	29 nM	0.17 ×10⁻⁶ cm/s			
CCn1c(CNC(=O)c2nc(Cl)cnc2N)[n+](CC)c2cc(OCC(=O)OC)ccc21	0.7 nM	0.25 ×10⁻⁶ cm/s		65%	
CCOP(=O)([O-])CCCOc1ccc2c(c1)[n+](CC)c(CNC(=O)c1nc(Cl)c(N)nc1N)n2CC1CCOCC1	8.3 nM	0.17 ×10⁻⁶ cm/s	< 5%	81%	
CCn1c(CNC(=O)c2nc(Cl)cnc2N)[n+](CC)c2cc(OCC(=O)NCCOCP(C)(C)=O)ccc21	3.4 nM			72%	inhibition in vivo at 0.0003 mg/kg [7]: 30%; ED50 [9]: 0.09 µg/kg; ED70 [9]: 0.18 µg/kg; inhibition in vivo at 0.03 mg/kg [4]: 30%; Activity [10]: <25%; Activity [11]: inactive; inhibition [8]: 29%; inhibition in vivo at 0.003 mg/kg [6]: 31%; Efficacy [12]: 31%
CCn1c(CNC(=O)c2nc(Cl)cnc2N)[n+](CCO)c2cc(OCC(=O)N3CCN(C(C)=O)CC3)ccc21	18 nM	0.7 ×10⁻⁶ cm/s	> 5%	76%	inhibition [8]: 75%; inhibition in vivo at 0.003 mg/kg [6]: 75%
CCn1c(CNC(=O)c2nc(Br)cnc2N)[n+](CC)c2ccccc21	0.7 nM				
CCn1c(CNC(=O)c2nccnc2N)[n+](CC)c2ccccc21	169 nM				
CCn1c(CNC(=O)c2ncc(C)nc2N)[n+](CC)c2ccccc21	1670 nM				
CCn1c(CNC(=O)c2nc(Cl)c(N)nc2N)[n+](CC)c2cc(OCCCP(=O)([O-])OC[C@H]3CCCO3)ccc21	10 nM	0.06 ×10⁻⁶ cm/s	> 5%	89%	inhibition in vivo at 0.03 mg/kg [4]: 16%; inhibition in vivo at 0.003 mg/kg [6]: 14%
CCn1c(CNC(=O)c2nc(Cl)c(N)nc2N)[n+](CCO)c2cc(OCC(=O)N3CCN(C(C)=O)CC3)ccc21	3.1 nM	0.31 ×10⁻⁶ cm/s	< 2%	92%	
CCn1c(CNC(=O)c2nc(Cl)cnc2N)[n+](CC)c2cc(C(=O)OC)ccc21	3 nM				
CCn1c(CNC(=O)c2nc(Cl)c(N)nc2N)[n+](CC)c2ccccc21	0.2 nM				
